According to patent publication US20250098692A1, “GERMINATION/SPROUTING AND FRUIT RIPENING REGULATORS” (The United States of America, as Represented by the …, priority 2021, published 2025):

Columns and labels:
strawberry fruit [1] = experiment: PAD analogs: ability to delay strawberry fruit ripening; type: in vivo; conditions: for effect on strawberry fruit ripening: 50 μM in 0.1% TRITON-X 100
Protocol: Chemicals with similarity to PAD were tested for their ability to delay fruit ripening.
To the inventors' knowledge, no chemical closely-related to PAD is currently commercially available. A few analogs with 88-99% similarity to PAD were found in the ChemBridge database used in Example 1.

strawberry fruit [2] = experiment: Strawberry fruit ripening after dipping fruits on the plant; type: in vivo, Fragaria x ananassa CV. Albion; conditions: for strawberry appearance (FIG. 2B): 8 DAT; for strawberry appearance (FIG. 2B) / strawberry appearance (FIG. 2C) / strawberry appearance (FIG. 2D) / strawberry appearance (FIG. 2E) / strawberry appearance (FIG. 2F) / fruit started to turn red: 10 μM PAD or 1 mM ABA; for strawberry appearance (FIG. 2C): 9 DAT; for strawberry appearance (FIG. 2D): 10 DAT; for strawberry appearance (FIG. 2E): 11 DAT; for strawberry appearance (FIG. 2F): 12 DAT; for effect on strawberry fruit ripening compared to mock-treated fruit: dipped 20 seconds eight days after pollination, 10 μM PAD or 1 mM ABA in 0.1% TRITON X-100
Protocol: Strawberry plants (Fragaria x ananassa CV. Albion) were grown in a greenhouse at 28° C. and 14-hour light/10-hour dark conditions. Eight days after pollination, fruits were dipped for 20 seconds in 10 µM PAD in 0.1% TRITON X-100 surfactant; 1 mM ABA in 0.1% TRITON X-100 surfactant; or buffer alone (0.1% Triton X-100). Fruits were allowed to continue growing on the plants. FIG. 1 depicts images of strawberry fruit development under standard conditions.
Of the twelve chemicals identified in Example 1 as promoting seed germination, N-[3-chloro-4-(4-propionyl-1-piperazinyl)phenyl]-2-phenylacetamide was named “PAD,” and used for further study. […] Mock-treated fruit started to turn red at 10 DAT, and reached full red at 12 DAT. ABA-treated fruit started to turn red 9 DAT, and reached full red 11 DAT. In contrast, PAD-treated fruit only started turning red 12 DAT.

Cherry tomato fruits = experiment: Cherry tomato ripening after injection at mature green stage; type: in vivo; conditions: for cherry tomato appearance (FIG. 3B, FIG. 3D): 6 DAT, injected 10 µM PAD or 200 μM ABA (figure legend); for ripening stage of cherry tomato fruits: six days after treatment, injected 50 μM PAD or 200 μM ABA
Protocol: Cherry tomato fruits at mature green stage were purchased from Butler's Orchard (Germantown, Maryland, USA). […] FIG. 3A and FIG. 3B show images of cherry tomatoes injected with 50 µM PAD. FIG. 3C and FIG. 3D show images of cherry tomatoes injected with 200 μM ABA. FIG. 3E and FIG. 3F show images of cherry tomatoes injected with buffer alone. FIG. 3G and FIG. 3H show images of untreated tomatoes. FIG. 3A; FIG. 3C; FIG. 3E; and FIG. 3G show images taken the day of treatment. FIG. 3B; FIG. 3D; […]; and FIG. 3H show images taken 6 DAT.

strawberry fruit [3] = experiment: Strawberry fruit ripening after injection of fruits; type: in vivo, Fragaria x ananassa CV. Albion; conditions: for strawberry appearance (FIG. 4A): 8 DAT; for strawberry appearance (FIG. 4A) / strawberry appearance (FIG. 4B) / strawberry appearance (FIG. 4C) / strawberry appearance (FIG. 4D) / strawberry appearance (FIG. 4E) / fruit started to turn red: 10 µM PAD or 200 μM ABA; for strawberry appearance (FIG. 4B): 9 DAT; for strawberry appearance (FIG. 4C): 10 DAT; for strawberry appearance (FIG. 4D): 11 DAT; for strawberry appearance (FIG. 4E): 12 DAT
Protocol: Strawberry plants (Fragaria x ananassa CV. Albion) were grown and maintained as disclosed above. Fourteen days after pollination fruits were injected with 10 µM PAD in 0.1% TRITON X-100 surfactant; 200 μM ABA in 0.1% TRITON X-100 surfactant; or buffer alone (0.1% Triton X-100 surfactant).
FIG. 4A to FIG. 4F depict images of strawberries treated with either 10 µM PAD in 0.1% TRITON X-100 surfactant; 200 μM ABA in 0.1% TRITON X-100 surfactant; buffer alone ([…] surfactant; mock-treated); or not injected (control). […] Control fruit started to turn red 11 DAT, and reached full red at 12 DAT. Mock-treated fruit started to turn red at 10 DAT, and reached full red at 12 DAT. ABA-treated fruit started to turn red 9 DAT, and reached full red 11 DAT. In contrast, PAD-treated fruit only started turning red 12 DAT.

[4] = tested on: Strawberry seeds (Fragaria x ananassa CV. Albion); experiment: Chemical library screening for promotion of strawberry seed germination; type: in vivo; conditions: about 5 μM chemical in 0.1% TRITON X-100, 96 well plates, 25 C
Text: Chemical libraries of small compounds were screened for compounds capable of promoting seed germination, delaying the fruit ripening process, and/or retarding fruit pigmentation. A chemical library containing 10,000 small compounds (˜300 Dalton) was purchased from ChemBridge Co (San Diego, California, USA). Strawberry seeds (Fragaria x ananassa CV. Albion) were purchased from Johnny's Seeds (Fairfield, Maine, USA). Five to six seeds were sterilized with 70% ethanol and added to each well of 96 well ELISA plates containing about 5 μM chemical in 0.1% TRITON X-100 surfactant (polyethylene glycol tert-octylphenyl ether). One mM abscisic acid (ABA), a hormone that inhibits seed germination, and gibberellic acid (GA3), a hormone that promotes seed germination, were used as controls. Each experiment was conducted in triplicate. Plates were kept in a growth chamber at 25 C under dark, and a 14 hour light/10 hour dark cycle was added after seed germination was observed.

strawberry fruit [5] = experiment: Strawberry fruit ripening after dipping fruits on the plant; type: in vivo, Fragaria x ananassa CV. Albion; conditions: 10 μM PAD applied on day 9 after pollination

SMILES	effect on strawberry fruit ripening (strawberry fruit [1])	strawberry appearance (FIG. 2B) (strawberry fruit [2]; dipped)	strawberry appearance (FIG. 2C) (strawberry fruit [2]; dipped)	strawberry appearance (FIG. 2D) (strawberry fruit [2]; dipped)	strawberry appearance (FIG. 2E) (strawberry fruit [2]; dipped)	strawberry appearance (FIG. 2F) (strawberry fruit [2]; dipped)	effect on strawberry fruit ripening compared to mock-treated fruit (strawberry fruit [2])	fruit started to turn red (strawberry fruit [2]; dipped, days after treatment) [DAT]	cherry tomato appearance (FIG. 3B, FIG. 3D) (Cherry tomato fruits)	ripening stage of cherry tomato fruits (Cherry tomato fruits)	strawberry appearance (FIG. 4A) (strawberry fruit [3]; injected)	strawberry appearance (FIG. 4B) (strawberry fruit [3]; injected)	strawberry appearance (FIG. 4C) (strawberry fruit [3]; injected)	strawberry appearance (FIG. 4D) (strawberry fruit [3]; injected)	strawberry appearance (FIG. 4E) (strawberry fruit [3]; injected)	fruit started to turn red (strawberry fruit [3]; injected, days after treatment) [DAT]	also measured
CC(C)C(=O)N1CCN(c2ccc(NC(=O)C(c3ccccc3)c3ccccc3)cc2Cl)CC1 [N-(3-chloro-4-(4-isobutyryl-1-piperazinyl)phenyl]-2,2-diphenylacetamide]	no obvious effect																
CC1=CC(=O)CC(C)(C)[C@@]1(O)/C=C/C(C)=C\C(=O)O [ABA, abscisic acid, reference compound]		white	with pink spots	mostly red	red	red	stimulated strawberry fruit ripening	9	red	fully ripen (red stage)	with pink spots	mostly red	mostly red	mostly red	red	9	fruit reached full red (strawberry fruit [2]; dipped, 1 mM ABA, days after treatment): 11 DAT; fruit reached full red (strawberry fruit [3]; injected, 200 μM ABA, days after treatment): 11 DAT
CC(C)C(=O)N1CCN(c2ccc(NC(=O)Cc3ccc(Cl)cc3)cc2)CC1 [2-(4-chlorophenyl)-N-[4-(4-isobutyryl-1-piperazinyl)phenyl]acetamide]	no obvious effect																
CCC(=O)N1CCN(c2ccc(NC(=O)Cc3ccccc3)cc2Cl)CC1 [PAD, N-[3-chloro-4-(4-propionyl-1-piperazinyl)phenyl]-2-phenylacetamide]		white with a greenish tint	whit with a greenish tint	white with a greenish tint	white	red with some yellow	delayed fruit ripening	12	with a yellow and/or yellow/red tint	still at a green stage	with pink spots	orange	mostly red	mostly red	red	12	fresh weight of strawberry fruit larger than mock-treated (strawberry fruit [2]; PAD-treated vs mock-treated): about 10%; sugar content versus mock-treated controls (strawberry fruit [2]; PAD-treated vs mock-treated): no difference in the sugar content; promoting seed germination [4]: promoted seed germination; delay of strawberry fruit ripening compared with mock-treated (strawberry fruit [5]): about 2 days; effect on cherry tomato ripening compared to mock-treated or untreated (Cherry tomato fruits; injected 50 μM PAD): delay in cherry tomato ripening; delay in cherry tomato fruit ripening (Cherry tomato fruits; mature green stage, 50 μM PAD): about a seven-day delay; effect on strawberry fruit ripening compared to not-treated, mock-treated and ABA treated fruit (strawberry fruit [3]; injected fourteen days after pollination, 10 µM PAD): delayed fruit ripening
CC(C)(C)C(=O)N1CCN(c2ccc(NC(=O)Cc3ccccc3)cc2Cl)CC1 [N-(3-chloro-4-[4-(2,2-dimethylpropanoyl)-1-piperazinyl]phenyl)-2-phenylacetamide]	delayed strawberry fruit ripening																effectiveness in delaying strawberry fruit ripening relative to PAD (strawberry fruit [1]; 50 μM in 0.1% TRITON-X 100, same timing as PAD): much less effectively than PAD
